Measurements as given in patent publication US20200123147A1, “THIAZOLE COMPOUNDS USEFUL AS PRMT5 INHIBITORS” (Bayer Aktiengesellschaft, priority 2017, published 2020).

Biological target: T1, PRMT5:MEP50 protein complex (Homo sapiens, UniProt O14744)
T1 construct: FLAG (N); made in house; host or cells: Hi5 insect cells
Assay: In vitro assay 1: PRMT5 SPA assay ("EAA")
Type: biochemical
Conditions: scintillation proximity assay, methylation of biotinylated H4(1-24) peptide, 3H-SAM, 60 min at 22° C.
Description: In Vitro Assay 1: PRMT5 SPA Assay (“EAA”)
PRMT5 inhibitory activities of the compounds described in the present invention were quantified using a scintillation proximity assay (SPA) which measures methylation by the enzyme of a synthetic, biotinylated peptide corresponding to the N-terminal sequence of Histone H4 (a.a. 1-24). The peptide of sequence […]-K(Btn)-amide is commercially available (e.g. from Biosyntan) and will be herein referred to as H4(1-24). The PRMT5:MEP50 protein complex used in the assay was produced in house following standard protocols. Briefly, full length PRMT5 and MEP50 constructs respectively tagged with N-terminal FLAG and 6× His sequences were co-expressed in Hi5 insect cells, and the recombinant protein complex was purified by FLAG affinity and size exclusion chromatography.
In a typical assay 11 different concentrations of each compound (0.1 nM, 0.33 nM, 1.1 nM, 3.8 nM, 13 nM, 44 nM, 0.15 μM, 0.51 μM, 1.7 μM, 5.9 μM and 20 μM) were tested in duplicate within the same microtiter plate. To this end, 100-fold concentrated compound solutions (in DMSO) were previously prepared by serial dilution (1:3.4) of 2 mM stocks in a clear low volume 384-well source microtiter plate (Greiner Bio-One), from which 50 nl of compounds were transferred into a white low volume test microtiter plate from the same supplier. Subsequently, 2.5 μL PRMT5 in aqueous assay buffer [20 mM Bicine pH 8.0 (Alfa Aesar), 7.5 mM Tris(2-carboxyethyl) phosphine hydrochloride (TCEP, Sigma), 0.1% (w/v) bovine gamma globuline (BGG, Sigma), 0.002% (v/v) Tween-20 (Sigma)] were added to the compounds in the test plate to a final enzyme concentration of—typically—7.5 nM (this parameter was adjusted depending on the activity of the enzyme lot in order to be within the linear dynamic range of the assay). The samples were then incubated for 15 min at 22° C. to allow pre-equilibration of the putative enzyme-inhibitor complexes before the start of the methylation reaction, which was initiated by the addition of 2.5 μL 2-fold concentrated solution (in assay buffer) of “cold” S-Adenosyl-L-Methionine (SAM, Sigma, final concentration: 0.5 μM), tritiated 3H-SAM (Perkin Elmer, final concentration: 0.5 μM) and H4(1-24) peptide substrate (final concentration: 0.06 μM). The resulting mixture (5 μL final volume) was shortly centrifuged (2 min., 1500 rpm) and incubated at 22° C. during 60 min. Thereupon the reaction was stopped by adding 3 μL of Streptavidin PS SPA imaging beads (Perkin Elmer, final concentration of 0.375 μg/μL) and “cold” SAM (AK Scientific, 250 μM final concentration) for non-specific binding reduction. Plates containing the stopped reaction were sealed with transparent adhesive foil (Perkin Elmer), centrifuged (2 min., 1500 rpm), and further incubated either 1 h at 22° C. or overnight at 4° C. in order to allow the SPA signals to develop. Subsequently, the amount of product was evaluated by measuring the energy transfer from the β-particles emitted by the 3H-labeled substrate to the Europium scintillator co-polymerized in the polystyrene matrix of the PS imaging beads, using the standard settings for this purpose of a Viewlux (Perkin-Elmer) CCD plate imaging device (emission filter 613/55 (IFP).
The resulting scintillation counts were taken as indicator for the amount of methylated peptide per well. The data were normalised using two sets of control wells (typically 16 each) for high—(=enzyme reaction with DMSO instead of test compound=0%=minimum inhibition) and low—(=all assay components without enzyme=100%=maximum inhibition) PRMT5 activity. IC50 values were calculated by fitting the normalized inhibition data to a 4-parameter logistic equation using the “Screener” analysis software from Genedata.

T1 sequence (O14744 whole entry, species assumed): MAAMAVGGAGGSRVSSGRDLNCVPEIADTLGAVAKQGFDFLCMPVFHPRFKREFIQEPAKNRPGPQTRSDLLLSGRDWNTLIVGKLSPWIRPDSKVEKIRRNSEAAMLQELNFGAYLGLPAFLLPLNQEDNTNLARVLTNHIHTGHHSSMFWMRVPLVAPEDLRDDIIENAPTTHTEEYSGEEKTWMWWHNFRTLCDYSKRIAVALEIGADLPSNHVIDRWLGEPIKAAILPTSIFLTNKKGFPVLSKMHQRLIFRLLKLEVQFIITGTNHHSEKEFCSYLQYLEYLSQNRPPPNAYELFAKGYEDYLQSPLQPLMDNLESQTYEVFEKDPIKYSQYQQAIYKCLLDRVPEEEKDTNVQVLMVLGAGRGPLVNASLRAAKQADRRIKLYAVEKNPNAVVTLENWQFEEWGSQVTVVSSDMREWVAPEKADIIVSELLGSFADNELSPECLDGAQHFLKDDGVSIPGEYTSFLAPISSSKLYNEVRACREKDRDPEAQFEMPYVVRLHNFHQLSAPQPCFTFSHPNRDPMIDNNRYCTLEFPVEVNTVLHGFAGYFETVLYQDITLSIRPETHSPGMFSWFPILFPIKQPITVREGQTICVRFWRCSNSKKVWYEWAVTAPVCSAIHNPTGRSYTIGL
T1 sequence (Q9BQA1 whole entry partner, species assumed): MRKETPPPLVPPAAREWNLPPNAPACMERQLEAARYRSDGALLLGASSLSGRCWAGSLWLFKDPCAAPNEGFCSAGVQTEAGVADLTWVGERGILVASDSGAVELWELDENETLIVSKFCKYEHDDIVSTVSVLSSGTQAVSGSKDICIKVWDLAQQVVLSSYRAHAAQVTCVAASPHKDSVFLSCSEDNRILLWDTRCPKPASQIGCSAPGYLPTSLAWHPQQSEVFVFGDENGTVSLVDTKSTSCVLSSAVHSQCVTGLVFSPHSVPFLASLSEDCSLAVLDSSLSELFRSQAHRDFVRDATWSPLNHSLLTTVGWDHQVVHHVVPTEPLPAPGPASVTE

SMILES | IC50
CC(C)(C)c1cc(NC(=O)c2csc(Nc3ccc(F)c(Cl)c3)n2)no1 [Example 46, N-(5-tert-Butyl-1,2-oxazol-3-yl)-2-[(3-chloro-4-fluorophenyl)amino]-1,3-thiazole-4-carboxamide] | 1200 nM
CC(C)(C)c1cc(NC(=O)c2csc(NCc3ccco3)n2)no1 [Example 44, N-(5-tert-Butyl-1,2-oxazol-3-yl)-2-[(furan-2-ylmethyl)amino]-1,3-thiazole-4-carboxamide] | 606 nM
N#Cc1c[nH]nc1NC(=O)c1csc(Nc2ccccc2)n1 [Example 30, N-(4-Cyano-1H-pyrazol-3-yl)-2-(phenylamino)-1,3-thiazole-4-carboxamide] | 12000 nM
Cc1cc(F)ccc1Nc1nc(C(=O)Nc2cc(C(C)(C)C)on2)cs1 [Example 50, N-(5-tert-Butyl-1,2-oxazol-3-yl)-2-[(4-fluoro-2-methylphenyl)amino]-1,3-thiazole-4-carboxamide] | 6710 nM
Cc1ccc(Nc2nc(C(=O)Nc3cc(C(C)(C)C)on3)cs2)nc1 [Example 34, N-(5-tert-Butyl-1,2-oxazol-3-yl)-2-[(5-methylpyridin-2-yl)amino]-1,3-thiazole-4-carboxamide] | 41.8 nM
Cc1ccc(Nc2nc(C(=O)Nc3cc(C(C)(C)C)on3)cs2)c(F)c1 [Example 41, N-(5-tert-Butyl-1,2-oxazol-3-yl)-2-[(2-fluoro-4-methylphenyl)amino]-1,3-thiazole-4-carboxamide] | 426 nM
CC(C)(C)c1cc(NC(=O)c2csc(Nc3ccc4c(c3)CCC4)n2)no1 [Example 38, N-(5-tert-Butyl-1,2-oxazol-3-yl)-2-(2,3-dihydro-1H-inden-5-ylamino)-1,3-thiazole-4-carboxamide] | 160 nM
CC(C)(C)c1cc(NC(=O)c2csc(NCc3cccc(F)c3)n2)no1 [Example 42, N-(5-tert-Butyl-1,2-oxazol-3-yl)-2-[(3-fluorobenzyl)amino]-1,3-thiazole-4-carboxamide] | 508 nM
O=C(Nc1nccs1)c1csc(Nc2ccc(Cl)cc2)n1 [Example 11, 2-[(4-Chlorophenyl)amino]-N-(1,3-thiazol-2-yl)-1,3-thiazole-4-carboxamide] | 280 nM
CC(C)(C)c1cc(NC(=O)c2csc(Nc3ccc(Cl)c(F)c3)n2)no1 [Example 39, N-(5-tert-Butyl-1,2-oxazol-3-yl)-2-[(4-chloro-3-fluorophenyl)amino]-1,3-thiazole-4-carboxamide] | 183 nM
CC(C)(C)c1cc(NC(=O)c2csc(Nc3ccc(F)c(F)c3)n2)no1 [Example 45, N-(5-tert-Butyl-1,2-oxazol-3-yl)-2-[(3,4-difluorophenyl)amino]-1,3-thiazole-4-carboxamide] | 815 nM
CC(C)(C)c1cc(NC(=O)c2csc(NC3CC3)n2)no1 [Example 32, N-(5-tert-Butyl-1,2-oxazol-3-yl)-2-(cyclopropylamino)-1,3-thiazole-4-carboxamide] | 14700 nM
CC(C)(C)c1cc(NC(=O)c2csc(Nc3ccc(Cl)cn3)n2)no1 [Example 35, N-(5-tert-Butyl-1,2-oxazol-3-yl)-2-[(5-chloropyridin-2-yl)amino]-1,3-thiazole-4-carboxamide] | 49.6 nM
COc1ccc2[nH]c(NC(=O)c3csc(Nc4ccc(Cl)cc4)n3)nc2c1 [Example 9, 2-[(4-Chlorophenyl)amino]-N-(5-methoxy-1H-benzimidazol-2-yl)-1,3-thiazole-4-carboxamide] | 239 nM
CC(C)(C)c1cc(NC(=O)c2csc(Nc3ccccc3F)n2)no1 [Example 25, N-(5-tert-Butyl-1,2-oxazol-3-yl)-2-[(2-fluorophenyl)amino]-1,3-thiazole-4-carboxamide] | 2490 nM
CC(C)(C)c1cc(NC(=O)c2csc(NCCc3ccccc3)n2)no1 [Example 37, N-(5-tert-Butyl-1,2-oxazol-3-yl)-2-[(2-phenylethyl)amino]-1,3-thiazole-4-carboxamide] | 119 nM
